Results from patent publication US11229629B2, “Inhibitors of mitochondrial fission” (Queen's University at Kingston, priority 2019, dated 2022).

Assays:
[1] = system: A549 cells; assay: Mitochondrial morphology analysis (MFC, machine learning) in A549 cells; conditions: for Concentration (dose) at which mitochondrial fission was inhibited: in vitro screening
Procedure: Cell Culture: A549 cells were purchased from the American Type Culture Collection (ATCC) and were cultured in Dulbecco's Modified Eagle's Medium (DMEM) (D5796, Sigma Aldrich) supplemented with 10% fetal bovine serum (FBS). Cells were cultured at 37° C. in a humidified incubator balanced with 5% CO2.
Compound solution preparation for in vitro experiments: Candidate compounds were dissolved in anhydrous Dimethyl Sulfoxide (DMSO) (available from Sigma Aldrich), filtered by a 0.20 μm PTFE filter and added to culture medium to make a working solution at designated concentrations. Final concentration of DMSO in culture medium was s 0.1%. Same volume of DMSO was used as control.
(§4) Higher MFC indicates more fragmented mitochondrial network.
Mitochondrial morphology was used as an indicator of Drp1 activity in the in vitro screening, such that Drp1 inhibitors would be identified by an increase in fusion.

[2] = system: Drp1 knocked-down A549 cells; assay: MFC in Drp1 knocked-down A549 cells with FCCP-induced fission; format: cell-based, human; conditions: FIG. 5B
Procedure: as §4
Carbonyl cyanide-4-(trifluoromethoxy) phenylhydrazone (FCCP) was added, a mitochondrial oxidative phosphorylation uncoupler, to cells treated with siDrp1.

[3] = system: A549 cells xenotransplant tumor; assay: In vivo xenotransplant tumor model of human lung cancer; parameters: species or system mouse; conditions: 10 mg/kg intraperitoneally and intratumorally; end of study
Excerpt: (§1) In vivo xenotransplant tumor model: BALB/c Rag2^−/−; IL2Rgc^−/− double knock out mice were kindly provided by Dr. M Ito, Central Institute for Experimental Animals, Kawasaki, Japan and were bred in the Animal Facility at Queen's University. Animal protocols were approved by the University Animal Care Committee of Queen's University. A xenotransplant mouse model of human lung cancer was established by subcutaneous injection of A549 cells ([…] per tumor) at the back flank regions. […] Equal volumes of solvents were injected as control. […] Tumor length and width was measured every 2 days. Animals were euthanized with cervical dislocation under 5% isoflurane inhalation followed by tumor collection. Blood samples were collected for liver and kidney toxicity studies just before euthanasia.

[4] = system: MCF7; assay: Colony formation assay in MCF7 cells; format: cell-based; conditions: 0.5 μM of Drpitor1a
Procedure: (§2) Colony formation assay: Cells were seeded in 6-well plates and optimal concentrations of compounds were added 24 hours after seeding. After 48 hours of compound treatment, cells were disassociated with 0.25% trypsin-EDTA (25200114, Gibco, Burlington, ON, Canada) and reseeded in a 48-well plate at a density of 200 live cells/mL. After 7-10 days of culture, cells were fixed with 4% paraformaldehyde and then stained with 1% crystal violet (V5265, Millipore Sigma, Etobicoke, ON, Canada). Images of cell colonies were taken by a Panasonic LX3 digital camera (Kadoma, Osaka, Japan).

[5] = system: U87 (Glioblastoma cells); assay: Cell proliferation of U87 cells; format: cell-based; conditions: 0.15~2.5 μM of Drpitor1a, Ctrl = 1
Procedure: (§3) Cell proliferation assay: Cell proliferation was measured 48 hours post compound treatment using Click-iT® EdU Alexa Fluor® 488 Imaging Kit (available from Thermo Fisher Scientific) according to manufacturer's protocol. 1.0×10^5 cells were seeded per well in 6-well plates and compounds were added 24 hours after seeding. EdU was allowed to incorporate 10 hours before flow cytometry. Percentage of cells incorporated with EdU in each group was determined using SONY SH800S flow cytometer and compared between control group and treatment groups.

[6] = system: mutant mouse Drp1 K38A in siDrp1-treated A549 cells; assay: MFC in A549 cells transfected with siDrp1+mDrp1 K38A; conditions: FIG. 5A
[7] = system: U373 (Glioblastoma cells); assay: Cell proliferation of U373 cells; format: cell-based; conditions: 0.15~2.5 μM of Drpitor1a, Ctrl = 87.2
Procedure: as §3

[8] = system: SK-MES-1; assay: Colony formation assay in SK-MES-1 cells; format: cell-based; conditions: 0.5 μM of Drpitor1a
Procedure: as §2

[9] = system: A549; assay: Cell proliferation assay (EdU) in A549 cells; format: cell-based, human; conditions: for Cell proliferation: A549, 0.5 μM of Drpitor1a, 48 hours; for Percentage of EdU incorporated cells: mdivi-1 50 μM, Drpitor1 0.75 μM, Drpitor1a 0.5 μM, FIG. 6A
Procedure: as §3

[10] = system: SK-MES-1; assay: Apoptosis assay (Annexin V/PI) in SK-MES-1 cells; format: cell-based; conditions: 0.25-0.5 μM of Drpitor1a
Procedure: (§5) Apoptosis assay: Cell apoptosis was determined by the Annexin V+ propidium iodide (PI) method using Alexa Fluor 488 Annexin V/Dead Cell Apoptosis Kit (available from ThermoFisher Scientific). A549 cells were collected 48 hours after compound treatment. Percentage of Annexin V (+) and PI (+) cells was determined using SONY S[MUT] flow cytometer and compared between control group and treatment groups.

[11] = system: mitochondrial complex I; assay: Mitochondrial complex I activity in A549 cells; format: cell-based, human; conditions: mdivi-1 50 μM, Drpitor1a 0.5 μM; FIG. 5C
[12] = system: MCF7; assay: Mitochondrial fragmentation count in MCF7 cells; format: cell-based; conditions: 0.1-0.5 μM of Drpitor1a
[13] = system: SW 900; assay: Cell proliferation assay (EdU) in SW 900 cells; format: cell-based; conditions: 0.5 μM of Drpitor1a
Procedure: as §3

[14] = system: PAH PASMC cell lines; assay: Cell proliferation of PAH PASMC cell lines; format: cell-based, human; parameters: unit: % EdU-positive cells; conditions: 1.0 μM of Drpitor1a
Procedure: as §3

[15] = system: SK-LU-1; assay: Apoptosis assay (Annexin V/PI) in SK-LU-1 cells; format: cell-based; conditions: 0.25-0.5 μM of Drpitor1a
Procedure: as §5

[16] = system: SW 900; assay: Mitochondrial fragmentation count in SW 900 cells; format: cell-based; conditions: 0.1-0.5 μM of Drpitor1a
[17] = system: SW 900; assay: Apoptosis assay (Annexin V/PI) in SW 900 cells; format: cell-based; conditions: 0.25-0.5 μM of Drpitor1a
Procedure: as §5

[18] = system: A549; assay: Apoptosis assay (Annexin V/PI) in A549 cells; format: cell-based, human; conditions: 1.0 μM of Drpitor1, 0.25-0.5 μM of Drpitor1a, 48 hours
Procedure: Apoptosis assay: Cell apoptosis was determined by the Annexin V+ propidium iodide (PI) method using Alexa Fluor 488 Annexin V/Dead Cell Apoptosis Kit (available from ThermoFisher Scientific). A549 cells were collected 48 hours after compound treatment. Percentage of Annexin V (+) and PI (+) cells was determined using SONY S[…] flow cytometer and compared between control group and treatment groups.

[19] = system: MCF7; assay: Cell proliferation assay (EdU) in MCF7 cells; format: cell-based; conditions: 0.5 μM of Drpitor1a
Procedure: as §3

[20] = system: SK-LU-1; assay: Mitochondrial fragmentation count in SK-LU-1 cells; format: cell-based; conditions: 0.1-0.5 μM of Drpitor1a
[21] = system: A549; assay: Colony formation assay in A549 cells; format: cell-based, human; conditions: 0.5 μM of Drpitor1a
Procedure: as §2

[22] = system: SK-MES-1; assay: Cell proliferation assay (EdU) in SK-MES-1 cells; format: cell-based; conditions: 0.5 μM of Drpitor1a
Procedure: as §3

[23] = system: SK-LU-1; assay: Colony formation assay in SK-LU-1 cells; format: cell-based; conditions: 0.5 μM of Drpitor1a
Procedure: as §2

[24] = system: SK-MES-1; assay: Mitochondrial fragmentation count in SK-MES-1 cells; format: cell-based; conditions: 0.1-0.5 μM of Drpitor1a
[25] = system: Daoy cells (Medulloblastoma cells); assay: Cell proliferation of Daoy cells; format: cell-based; conditions: 0.15~2.5 μM of Drpitor1a, Ctrl = 1
Procedure: as §3

[26] = system: right ventricle ischemia-reperfusion injury; conditions: 0.5 μM in perfusate; ex vivo rat heart
Procedure: Briefly, Sprague-Dawley rats were anesthetized with an intraperitoneal injection of ketamine (75 mg/kg)/xylazine (10 mg/kg). The hearts were harvested and perfused with oxygenated Krebs' solution at 37° C. at a constant pressure of 85 cmH2O on a Langendorff apparatus. RV pressure was measured by a fluid-filled balloon placed in the RV connected to a pressure transducer (Harvard Apparatus; Holliston, Mass., USA). High fidelity signals were recorded using PowerLab 8/35 data acquisition hardware and analyzed using LabChart Pro 8 software (AD Instruments; Colorado Springs, Colo., USA).
IR protocol: Hearts were stabilized for 10 minutes before the IR experiment. Two consecutive cycles of 20 minutes of global ischemia followed by 20 minutes of reperfusion were performed. […] Same volume of DMSO was used as a negative control for test compound. […]
Mitochondrial superoxide imaging and quantification: RV tissues collected from Langendorff RV-IR experiments were cut into pieces of 1×1×1 mm^3 and were incubated with 5 μM of MitoSOX™ Red mitochondrial superoxide indicator (available from Molecular Probes™) at 37° C. for 15 minutes. […] Intensity of the MitoSOX™ Red mitochondrial superoxide indicator was analyzed by the Leica LAS X software.
Test compound was added to the perfusate prior to IR. […] After IR, RV myocardium was collected and mitochondrial superoxide was measured.

[27] = Liver and kidney toxicity (blood samples), body weight in xenotransplant mice
Excerpt: as §1

[28] = system: SK-LU-1; assay: Cell proliferation assay (EdU) in SK-LU-1 cells; format: cell-based; conditions: 0.5 μM of Drpitor1a
Procedure: as §3

[29] = 10 mg/kg of Drpitor1a, blood before euthanasia

SMILES | Concentration (dose) at which mitochondrial fission was inhibited ([1]; A549 cells) [µM] | Colony number [4] | Cell proliferation [5] | MFC in cells transfected with siDrp1+mDrp1 K38A [6] | Cell proliferation [7] | Colony number [8] | Cell proliferation [9] | Percentage of EdU incorporated cells [9] | Mitochondrial complex I activity in A549 cells [11] | Cell proliferation [13] | Cell proliferation ([14]; PAH PASMC cell line P1) | Cell proliferation ([14]; PAH PASMC cell line P3) | Cell proliferation ([14]; PAH PASMC cell line P7) | Concentration giving the same degree of inhibition of mitochondrial fission (potency) ([1]; A549 cells) [µM] | Apoptosis [18] | Cell proliferation [19] | Colony number [21] | Cell proliferation [22] | Colony number [23] | Cell proliferation [25] | other results
N#Cc1cc2c3ccccc3[nH]c2c2ccccc12 [Compound 13] | 20 | – | – | – | – | – | – | – | – | – | – | – | – | – | – | – | – | – | – | – | Inhibition of mitochondrial fission (reduction in MFC) in in vitro screening ([1]; A549 cells, 17 compounds screened, FIG. 1): most significant inhibition of mitochondrial fission
O=C1c2ccncc2C(=O)c2c1[nH]c1ccccc21 [Drpitor1a] | – | 0 ± 0 | 0.1084 ± 0.001408 | this reduction was not seen | 45.33 ± 0.2728 | 0 ± 0 | 46 ± 0.8505 | significantly reduced | no significant change | 28.37 ± 0.3712 | 3.367 ± 0.3335 | 0.7167 ± 0.05608 | 9.68 ± 0.563 | 0.5 | 25.06 ± 0.4675 | 3.437 ± 0.2325 | 1.5 ± 0.2236 | 5.523 ± 0.3613 | 0.6667 ± 0.3333 | 0.7078 ± 0.005519 | MFC on adding compound to siDrp1+FCCP treatment ([2]; A549, Drpitor1a 0.25 μM): reduction of MFC was not seen; Reduction in tumor volume [3]: 43.8%; Reduction in tumor weight [3]: 43.9%; Dose dependence of effect on cell proliferation [9]: dose-dependent; Apoptosis [10]: 2.464 ± 0.131; MFC [12]: 0.5479 ± 0.05737; Apoptosis [15]: 3.6 ± 0.2292; MFC [16]: 0.3345 ± 0.0309; Apoptosis [17]: 5.686 ± 0.1402; Percentage area of elongated (filamentous) mitochondria, machine learning ([1]; FIG. 3B): increased percentage area of elongated mitochondria; MFC [20]: 0.3367 ± 0.03623; MFC [24]: 0.2291 ± 0.02596; Mean mitochondrial volume of cardiomyocytes during RV-IR [26]: increased mean mitochondrial volume; MitoSOX intensity (mitochondrial superoxide) in RV during IR [26]: lower MitoSOX intensity; Albumin [27, 29]: 26.75 ± 0.9465 g/L; BUN [27, 29]: 6.225 ± 1.186 mmol/L; Cholesterol [27, 29]: 4.188 ± 0.3317 mmol/L; Total bilirubin [27, 29]: 2.5 ± 0.324 µmol/L; Body weight ([27]; 10 mg/kg, 22 days of therapy): did not reduce body weight; Cell proliferation [28]: 5.04 ± 0.5525
N#CC(C#N)=NNc1ccc(OC(F)(F)F)cc1 [FCCP, carbonyl cyanide-4-(trifluoromethoxy)phenylhydrazone, reference compound] | – | – | – | – | – | – | – | – | – | – | – | – | – | – | – | – | – | – | – | – | Mitochondrial fission in Drp1 knocked-down A549 cells [2]: caused mitochondrial fission
COc1cc(-n2c(=S)[nH]c3ccccc3c2=O)c(Cl)cc1Cl [mdivi-1, mitochondrial division inhibitor 1, reference compound] | 20 | 7.167 ± 0.7491 | 0.9552 ± 0.01912 | this reduction was not seen | 65.43 ± 0.06667 | 5.5 ± 0.5627 | 32.43 ± 1.481 | significantly reduced | no significant change | 50.1 ± 0.7211 | 7.38 ± 0.1762 | 0.3567 ± 0.04372 | 7.78 ± 0.1882 | 25 | 15.3 ± 0.5213 | 8.217 ± 1.256 | 0.5 ± 0.3416 | 24.97 ± 3.38 | 2.5 ± 0.4282 | 0.8464 ± 0.008105 | Cell proliferation [28]: 29.5 ± 1.652
